Data as given in patent US10947229B2, “Dimethyl amino azetidine amides as JAK inhibitors” (THERAVANCE BIOPHARMA R&D IP, LLC, priority 2018, dated 2021).

How the values were obtained:
JAK2 = JAK2 (Homo sapiens (Human), UniProt O60674); experiment: Biochemical JAK kinase assay (LanthaScreen), JAK2; details: read-out: JAK2 pKi (converted)
Experimental: Recombinant GST-tagged JAK enzymes and a GFP-tagged STAT1 peptide substrate were obtained from Life Technologies. Serially diluted compounds were pre-incubated with each of the four JAK enzymes and the substrate in white 384-well microplates (Corning) at ambient temperature for 1 h. ATP was subsequently added to initiate the kinase reactions in 10 μL total volume, with 1% DMSO. […] Kinase reactions were allowed to proceed for 1 hour at ambient temperature before a 10 μL preparation of EDTA (10 mM final concentration) and Tb-anti-pSTAT1 ([…]) antibody (Life Technologies, 2 nM final concentration) in TR-FRET dilution buffer (Life Technologies) was added. The plates were allowed to incubate at ambient temperature for 1 h before being read on the EnVision reader (Perkin Elmer). Emission ratio signals (520 nm/495 nm) were recorded and utilized to calculate the percent inhibition values based on DMSO and background controls. For dose-response analysis, percent inhibition data were plotted vs. compound concentrations, and IC50 values were determined from a 4-parameter robust fit model with the Prism software (GraphPad Software). Results were expressed as pIC50 (negative logarithm of IC50) and subsequently converted to pKi (negative logarithm of dissociation constant, Ki) using the Cheng-Prusoff equation. Test compounds having a lower Ki value or higher pKi value in the four JAK assays show greater inhibition of JAK activity.

[1] = tested on: IFNγ stimulated STAT1 phosphorylation in CD14+ monocytes; experiment: Cellular JAK potency assay: inhibition of IFNγ-induced pSTAT1; assay type: cell-based; details: Monocyte; CD14+ monocytes from human whole blood; read-out: pIC50, inhibition of IFNγ-induced pSTAT1 (converted)
Experimental: The potency of test compounds for inhibition of interferon gamma (IFNγ) stimulated STAT1 phosphorylation was measured in CD14-positive (CD14+) monocytes derived from human whole blood (Stanford Blood Center) using flow cytometry. Because IFNγ signals through JAK, this assay provides a measure of JAK cellular potency. Monocytes were identified using a fluorescein isothiocyanate (FITC) conjugated anti-CD14 antibody (Clone RM052, Beckman Coulter), and an Alexa Fluor 647 conjugated anti-pSTAT1 antibody ([…], Clone 4a, BD Biosciences) was used to detect STAT1 phosphorylation. Human peripheral blood mononuclear cells (PBMC) were isolated from human whole blood of healthy donors using a ficoll gradient. […] Cells were washed twice with FACS buffer, and then re-suspended in 1:10 anti-pSTAT1 Alexa Fluor 647:FACS buffer (100 μL) for 30 min at RT in the dark, washed twice in FACS buffer, and analyzed using a MACSQuant flow cytometer (Miltenyi). To determine the inhibitory potency of the test compound, the median fluorescent intensity (MFI) of pSTAT1 was measured in CD14+ monocytes. IC50 values were determined from analysis of the inhibition curves of MFI vs compound concentration. Data are expressed as pIC50 (negative decadic logarithm IC50) values.

[2] = tested on: IL-12 stimulated STAT4 phosphorylation in CD3+ T cells; experiment: Cellular JAK potency assay: inhibition of IL-12-induced pSTAT4; assay type: cell-based; details: T-cell; CD3+ T cells from human whole blood; read-out: pIC50, inhibition of IL-12-induced pSTAT4 (converted)
Experimental: The potency of test compounds for inhibition of interleukin-12 (IL-12) stimulated STAT4 phosphorylation was measured in CD3-positive (CD3+) T cells derived from human whole blood (Stanford Blood Center) using flow cytometry. Because IL-12 signals through JAK, this assay provides a measure of JAK cellular potency. CD3+ T cells were identified using a phycoerythrin (PE) conjugated anti-CD3 antibody (clone UCHT1, BD Biosciences), and an Alexa Fluor 647 conjugated anti-pSTAT4 antibody (clone 38/p-Stat4, BD Biosciences) was used to detect STAT4 phosphorylation. Human peripheral blood mononuclear cells (PBMC) were isolated from human whole blood of healthy donors using a ficoll gradient. […] After incubation, cells were washed twice in FACS buffer before being analyzed using a MACSQuant flow cytometer (Miltenyi). To determine the inhibitory potency of the test compound, the median fluorescent intensity (MFI) of pSTAT4 was measured in CD3+ T cells. IC50 values were determined from analysis of the inhibition curves of MFI vs compound concentration. Data are expressed as pIC50 (negative decadic logarithm IC50) values.

JAK2, sequence (O60674 whole entry): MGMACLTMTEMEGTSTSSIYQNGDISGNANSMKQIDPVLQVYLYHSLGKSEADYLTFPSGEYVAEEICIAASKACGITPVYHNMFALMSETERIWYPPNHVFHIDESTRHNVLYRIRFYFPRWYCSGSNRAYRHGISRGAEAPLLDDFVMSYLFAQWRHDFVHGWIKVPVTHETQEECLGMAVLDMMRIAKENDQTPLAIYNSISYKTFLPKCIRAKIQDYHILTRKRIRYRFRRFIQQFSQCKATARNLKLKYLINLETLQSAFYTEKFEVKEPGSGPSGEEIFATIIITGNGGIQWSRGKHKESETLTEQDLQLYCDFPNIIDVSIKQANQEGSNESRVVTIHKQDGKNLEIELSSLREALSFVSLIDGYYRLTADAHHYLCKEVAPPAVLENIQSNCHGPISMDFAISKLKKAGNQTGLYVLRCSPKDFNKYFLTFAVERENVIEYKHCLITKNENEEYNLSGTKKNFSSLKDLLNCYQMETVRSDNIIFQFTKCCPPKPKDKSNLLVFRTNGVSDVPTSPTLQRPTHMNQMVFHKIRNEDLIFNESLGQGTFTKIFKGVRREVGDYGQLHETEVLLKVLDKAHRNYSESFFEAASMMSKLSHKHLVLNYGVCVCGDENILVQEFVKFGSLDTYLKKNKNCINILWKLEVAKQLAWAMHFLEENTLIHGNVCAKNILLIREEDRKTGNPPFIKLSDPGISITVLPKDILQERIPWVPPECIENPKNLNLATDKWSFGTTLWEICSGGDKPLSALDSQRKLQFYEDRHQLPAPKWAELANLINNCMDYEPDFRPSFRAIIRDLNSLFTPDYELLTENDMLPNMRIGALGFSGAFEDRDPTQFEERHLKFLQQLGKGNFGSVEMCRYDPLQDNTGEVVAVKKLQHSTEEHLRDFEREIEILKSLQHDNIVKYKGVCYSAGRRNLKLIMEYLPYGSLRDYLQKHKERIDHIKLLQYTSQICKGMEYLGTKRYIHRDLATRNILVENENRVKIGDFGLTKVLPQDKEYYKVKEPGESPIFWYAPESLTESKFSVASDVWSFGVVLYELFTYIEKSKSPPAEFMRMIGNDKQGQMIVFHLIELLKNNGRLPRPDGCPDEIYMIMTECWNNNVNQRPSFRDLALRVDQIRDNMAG

**Q.** Which results are given for `CCc1cc(O)ccc1-c1ccc2c(-c3nc4c([nH]3)CN(C(C)C)[C@H](C(=O)N3CC(N(C)C)C3)C4)n[nH]c2c1` [Compound 1, (S)-(3-(dimethylamino)azetidin-1-yl)(2-(6-(2-ethyl-4-hydroxyphenyl)-1H-indazol-3-yl)-5-isopropyl-4,5,6,7-tetrahydro-3H-imidazo[4,5-c]pyridin-6-yl)methanone]?
**A.** Ki (JAK2): 0.0316 nM; IC50 [1]: 31.6 nM; IC50 [2]: 1000 nM
